{"source": "patent US3987167A", "about": "“Antibiotic 20,798 R.P” (Rhone-Poulenc S.A., priority 1968, dated 1976)", "key": {"[1]": {"system": "acute lymphoblastic and myeloblastic leucaemias", "experiment": "Activity in human therapy", "assay_type": "in vivo", "details": "intravenous, daily doses between 0.1 and 2 mg./kg., adult", "protocol": "In human therapy 20,798 R.P. is active, particularly against acute lymphoblastic and myeloblastic leucaemias, when administered intravenously at daily doses of between 0.1 and 2 mg./kg. for an adult; a composition for injection for example, consists of a solution of 0.1 mg./cc. of active substance in physiological serum."}, "[2]": {"experiment": "Stability to acid treatment of the fermentation broth", "assay_type": "physicochemical", "details": "10° to 75° C., 48 hours to 30 minutes", "protocol": "When desired, the fermentation broth can, before the extraction procedures, be treated with an acid at a temperature between 10° and 75° C. for a period of from 48 hours to 30 minutes, the length of time varying inversely with the temperature, so as to enrich the antibiotic 9865 R.P. with daunorubicin. […] For acidification of the fermentation broth inorganic acids (hydrochloric, phosphoric or sulphuric acid) or organic acids (acetic or oxalic acid etc.) are suitable at various concentrations, but preferably hydrochloric acid or oxalic acid is used at concentrations of between 0.01N and 1N. The hydrolysis is preferably carried out for a period of from 15 hours to 1 hour at a temperature of from 20 C. to 50° C., the length of time varying inversely with the temperature."}, "sarcoma 180": {"system": "sarcoma 180", "experiment": "Anti-tumour activity in mice, sarcoma 180", "details": "graftable tumours of mice, solid form of sarcoma 180"}, "leucaemia L1210": {"system": "leucaemia L1210", "experiment": "Anti-tumour activity in mice, leucaemia L1210", "details": "graftable tumours of mice, leucaemia L 1210"}}, "data": [{"smiles": "COc1cccc2c1C(=O)c1c(O)c3c(c(O)c1C2=O)CC(O)(C(C)O)CC3OC1CC(N)C(O)C(C)O1", "note": "(stereo not shown) [20,798 R.P.]", "values": [{"measurement": "activity in human therapy", "setting": "[1]", "value": "active"}, {"measurement": "hydrolysis on acid treatment", "setting": "[2]", "value": "not hydrolysed"}, {"measurement": "anti-tumour activity", "setting": "sarcoma 180", "value": "particularly active"}, {"measurement": "anti-tumour activity", "setting": "leucaemia L1210", "value": "particularly active"}]}]}
